The source of these data is patent EP0558661B1, “POLYAZAMACROCYCLIC COMPOUNDS FOR COMPLEXATION OF METAL IONS” (BOARD OF REGENTS THE UNIVERSITY OF TEXAS SYSTEM, priority 1990, dated 1992).

Like-named read-outs stand apart in the source and are kept apart here. Where only a bound is given, the exact number is not on record here.

Data set [1] can be described thus: KD of the DOTEP calcium complex by 31P NMR and pH potentiometry. Format: binding. The following applies: Ca(DOTEP); at pH 7.4. Here is the method: The ^31P spectrum shown in Figure 9 was obtained on a solution containing approximately 1 mM Ca^2+ and 3 mM DOTEP in an aqueous solution at physiological pH. Clearly, the ^31P resonances of the free and bound forms of DOTEP have distinct chemical shifts and neither overlaps with the ^31P resonances of metabolites normally observed in tissue.
The value of KD at pH 7.4 reported above was determined by ^31P NMR (measuring the free and bound integrals as a function of pH in solutions containing known amounts of [Ca^2+]total and [DOTEP]total) and by pH potentiometry.

A short description of data set [2]: KD determination by 31P NMR (integration of free and metal bound resonances). Type of data set: binding. Here is the method: ^1H NMR data was obtained on JEOL FX-200 NMR spectrometer using a 10 mm probe operating at room temperature. Studies on solutions of NOTPME and its complexes were performed on a General Electric GN-500 NMR spectrometer. A 10 mm broad band probe was tuned to 202.4 MHz for ^31P detection. Shifts for NOTPME and its complexes were measured using 85% H3PO4 as an external standard. Probe temperatures were accurate to ± 0.5°C.
Samples of NOTPME used for KD determinations by NMR consisted of 115 mM KCl, 20 mM NaCl and 10 mM HEPES buffered with Tris base at pH 7.4. Varying concentrations (typically 0.5 to 10 mM) of Mg^2+, Ca^2+ or Zn^2+ were added to the sample and the resulting ^31P NMR spectrum obtained. Resonance areas were determined by integration of peaks using the GE software.
The area of resonances corresponding to free and metal bound NOTPME were obtained by integration and their concentrations estimated.

The nature of data set [3]: Stability constants by potentiometric titration. Format: binding. The following applies: for log KML: potentiometry at 25°C, 1:1 metal and ligand, 0.1 M tetramethylammonium chloride. On the procedure:
(§1) Potentiometric titrations were conducted at 25°C using a Corning Ion Analyzer (model 250) and a Metrohm Dorsimat automatic burette (Brinkman Instruments). […] Na3NOTPME was dissolved in 0.1 M tetramethylammonium chloride, the pH adjusted to low pH value with HCl and titrated with 0.098 M KOH. KOH was standardized by potentiometric titration against potassium hydrogen phthalate and stored under N2 atmosphere. The hydrogen ion activity coefficient and Kw were determined separately in these same salt solutions. Stability constants of Zn(NOTPME)^-, Mg(NOTPME)^-, and Ca(NOTPME)^- were determined by potentiometric titration of solutions containing 1:1 ratio of metal and ligand. In all of the titrations, samples were covered by a layer of cyclohexane to exclude CO2.
(§2) Protonation constants (KHiL) and stability constants (KML, and KMHL) are defined by the following equations: KHiL = [Hi L] / {[Hi-1 (L] {H)^+ ]) [formula] KML = [ML] / {[M] [L]) [formula] KMHL (= [MHL] / {[ML] [H)^+ ]} [formula] Protonation and stability constants were obtained from the potentiometric data using a simplex non-linear algorithm run on an IBM PC.

Data set [4] can be described thus: Protonation constants by potentiometric titration. Format: physicochemical. As to conditions: 0.1 m tetramethylammonium chloride. On the procedure:
as §1, §2
A representative potentiometric titration curve for NOTPME in 0.1 M tetramethylammonium chloride and 25°C is illustrated in Figure 2. […] The phosphorous shifts are very sensitive to protonation of the nitrogens in the polyaza ring, similar to that observed for the parent phosphonate NOTP [17]. The first two protonations (log K = 11.8, 3.65) result in ^31P shifts to low frequency which is consistent with protonation at two ring nitrogens. […] These differences in pK2 may reflect differences in the ability of the phosphonate versus the phosphonate monoester side chains to form internal hydrogen bonds with the protonated nitrogens.

The test system of data set [5] is RBCs. Put plainly: Red blood cell loading of NOTPME and intracellular free Mg2+ by 31P NMR. Type of data set: cell-based, Human. On the procedure: Fresh whole blood was obtained placed in heparinized tubes and centrifuged at 3000 g for 6 min. to remove the buffy coat. RBCs were then washed three times in 5 mM phosphate buffered saline at pH 7.4. RBCs at 50% hematocrit were suspended in the loading medium containing 120 mM NaCl, 5 mM MgCl2, 10 mM HEPES pH 7.4, 10 mM glucose, and 10 mM NOTPME and incubated at 37°C for 12 hours. No lysis of RBCs were observed during the loading procedure. The RBCs were centrifuged and the supernatant discarded. The RBCs were washed twice with phosphate buffered saline at pH 7.4 before suspension in an isotonic medium.
Figure 6 illustrates one application of NOTPME to detect intracellular free Mg^2+ in RBCs. NOTPME loaded RBCs (Figure 6.b) were prepared by incubating RBCs at 37°C in a loading medium containing NOTPME in the presence of 5mM MgCl2 for 12 hours. NOTPME loading into RBCs was not observed in the absence of MgCl2 in the loading medium.
As in the in vitro studies, two resonances were observed corresponding to free and Mg^2+ bound NOTPME in RBCs. […] Since intracellular free Mg^2+ levels in RBCs normally range between 0.2 - 0.3 mM [12,19,20], the high concentration of intracellular free Mg^2+ observed in this experiment must have resulted from transport of Mg^2+ as a complex with NOTPME. Upon addition of the divalent cation ionophore A23187 to the suspension medium, an increase in intracellular free Mg^2+ concentration (to 1.90 mM) was observed (data not shown).

The subject of data set [6] is red blood cells. Put plainly: Red blood cell loading of NOTPME derivatives. Type of data set: cell-based. The following applies: during the time course of NMR measurements, after loading with the derivatives. On the procedure:
NOTPME derivatives used are the benzoyl and acetyl derivatives. Fresh whole blood was obtained in heparinized tubes and centrifuged at 3000g for 3 minutes to remove the buffy coat. Packed red blood cells are then washed three times in 5 mM phosphate buffered saline at pH 7.4. Red blood cells at 50% hematocrit were suspended in the NOTPME derivative containing loading medium. The loading medium contained 130 mM NaCl, 5 mM NOTPME derivative (benzoyl or acetyl derivative), 1 mM adenine, 10 mM glucose, and 10 mM HEPES at pH 7.4. Red cells in the above loading medium were incubated at 25°C for 1 hour. No lysis of red blood cells were observed during the loading procedure. After loading with NOTPME derivatives for one hour, the red cell suspension was centrifuged and the supernatant discarded. The red cells are washed twice with 5 mM phosphate buffered saline at pH 7.4 before suspension in an isotonic saline for NMR measurements. […] After NMR measurements the sample was centrifuged and the supernatant analyzed for any leakage of NOTPME. No leak of NOTPME was observed during the time course of NMR measurements. thus, it is clear that these NOTPME derivatives enter the red cells, get hydrolyzed to NOTPME and remain inside red cells.

The nature of data set [7]: Solubility as observed on the isolated product. Format: physicochemical. Here is the method:
9.20 g of NOTPDE (14.15 mmol) was mixed with 2.50 g of NaOH in 9 ml H2O) and after 2 hours the entire reaction mixture was boiled until a clear solution was obtained (approximately 5 minutes). The solution was cooled to room temperature and was allowed to stand overnight. The crystals formed were filtered off from the viscous mother liquor using a pressure filter funnel with a coarse porosity grade filter disc. The crystals were washed once with cold absolute ethanol, three times with absolute ethanol-diethylether (1:1) mixture and finally with diethyl ether. The crystals of Na3NOTPME were dried in dry nitrogen stream at 25°C for 2 hours. Traces of H2O and ethanol were removed upon vacuum drying (10 mm Hg) NOTPME for 5 hours at 50°C. […] The yield of pure NOTPME was 40.8% (3.24 g, 5.77 mmol).
NOTPME trisodium salt (178.63 mg, 0.318 mmol) was dissolved in 4.0 ml anhydrous chloroform (freshly distilled from over P4O10) and 120 microliter acetyl chloride was added. The solution was stirred at room temperature for 24 hours in a tightly closed vessel. The solution was then evaporated under dry nitrogen atmosphere to a yellowish, very viscous oil. To the oil anhydrous ether was added and NOTPME-AC (precipitated as a sodium chloride adduct) was filtered off and dried at 35-40°C under dry nitrogen. NOTPME-AC (234.24 mg, 92.3% calculated on the basis of NOTPME-AC.3NaCl formula weight) is an extremely hygroscopic, water sensitive powder.
NOTPME trisodium salt (164.82 mg, 0.294 mmol) and benzoyl chloride (105 microliter, 0.883 mmol) were reacted in 4.0 ml anhydrous chloroform at room temperature for 24 hours. The rection mixture was worked up with identical method than was used in the synthesis of NOTPME-AC. The product NOTPME-B was get as a sodium chloride adduct (204.32 mg, 70.7% calculated on the basis of NOTPME-B.3NaCl formula weight). NOTPME-B is a very hygroscopic, water sensitive powder. It is soluble in water and chloroform and DMSO.

The conditions of data set [8]: 0.1 m hcl.
Procedure: In this experiment, Gd(DOTEP)^- and Gd(DOTA)^- were dissolved in 0.1M HCl and their decomposition to free Gd^3+ and free ligand were followed by water relaxation measurements.

For `CCP(=O)(O)CN1CCN(CP(=O)(O)CC)CCN(CP(=O)(O)CC)CCN(CP(=O)(O)CC)CC1` [DOTEP], the Kd (commonly the free concentration of one partner at which half of the binding sites on the other are occupied at equilibrium, for simple one-to-one binding) in data set [1] was 0.011 mM.

With `CCOP(=O)(O)CN1CCN(CP(=O)(O)OCC)CCN(CP(=O)(O)OCC)CC1` [NOTPME, 1,4,7-Triazacyclononane-N,N',N"-tris(methylenephosphonatemonoethylester)], the Kd was 50 mM in data set [2] (Ca^2+ complex, 115 mM KCl, 20 mM NaCl, 10 mM HEPES, pH 7.4, read-out: KD (at 25°X)); 47.6 mM in data set [2] (Ca^2+ complex, pH 7.4, read-out: KD (at 37°C)); 5.77 mM in data set [2] (Mg^2+ complex, 31P NMR, 115 mM KCl, 20 mM NaCl, 10 mM HEPES, pH 7.4, read-out: KD (at 25°X)); 4.66 mM in data set [2] (Mg^2+ complex, 31P NMR, pH 7.4, read-out: KD (at 37°C)); 0.01 nM in data set [3] (Zn^2+ complex, estimated from log KML = 15.4, the ligand pK values and the proton concentration at pH 7.4). For the same compound, the “higher affinity for Mg^2+ than for Ca^2+” value in data set [2] (at physiological pH values) was determined as 10 fold. The “log KML” value in data set [3] (Ca^2+) amounted to 5.1; in data set [3] (Mg^2+), 6.3. Besides, the pKa in data set [4] (25°C, read-out: pK1 (first protonation constant, log K1)) is 11.8; in data set [4] (25°C, read-out: pK2 (second protonation constant, log K2)), 3.65; in data set [4] (25°C, read-out: pK3) it was 1.4; in data set [4] (protonations of the phosphonate ester oxygens) it was < 1.4. Also, in data set [5] (10 mM NOTPME, 5 mM MgCl2, 37°C, 12 hours, 50% hematocrit), the “lysis of RBCs during the loading procedure” value was “No lysis”. The “loading into RBCs” value in data set [5] (in the absence of MgCl2 in the loading medium) is “not observed”. Also, in data set [5] (in the presence of Mg^2+), the “loading into red blood cells” value was “readily loaded”. Moreover, the “leakage of NOTPME into the supernatant” value in data set [6] is “No leak”. In addition, the solubility in chloroform result in data set [7] is on record as “fairly soluble”. In addition, the solubility in water entry in data set [7] is recorded as “readily soluble”.

As for `CCOP(=O)(CN1CCN(CP(=O)(OCC)OC(C)=O)CCN(CP(=O)(OCC)OC(C)=O)CC1)OC(C)=O` (centres unmarked) [NOTPME-AC, 1,4,7-triazacyclononane-N,N',N"-tris(methylenephosphonatemonoethylesteracetic acid anhydride)], in data set [7], the “solubility in DMSO” value is “readily soluble”, the solubility in chloroform entry is recorded as “readily soluble” and the solubility in water entry is “readily soluble”.

As to `CCOP(=O)(CN1CCN(CP(=O)(OCC)OC(=O)c2ccccc2)CCN(CP(=O)(OCC)OC(=O)c2ccccc2)CC1)OC(=O)c1ccccc1` (centres unmarked) [NOTPME-B], in data set [7], the “solubility in DMSO” value is “soluble”, the solubility in chloroform result is “soluble” and the solubility in water result is recorded as “soluble”.

Regarding Gd(DOTA)^-, the half-lives for decomposition result in data set [8] is “approximately 110 hrs”.
